Measured values from patent US9248109B2, “High penetration prodrug compositions of peptides and peptide-related compounds” (priority 2009, dated 2016).

Experiments:
[1] = test system: young Sprague Dawley rats; assay: Anti-obese activity, transdermal, young female Sprague Dawley rats (second experiment); type: in vivo, rat; conditions: for Food intake (per day & per rat) / Weight (g) (Day 30) / Weight (g) (Day 1): young rats; for Weight (g) (Day 1): baseline
Protocol: In a second experiment, 40 young female Sprague Dawley (SD) rats (180-225 g) were divided into 4 groups. In group A, 0.2 ml of water was administered to the back of rat (n=10) twice per day for 30 days. In Groups B, C, and D, 10 mg/kg, 1 mg/kg, or 0.3 mg/kg of H-Val-Pro-Gly-Pro-Arg(NO2)—OCH(CH3)2.HCl(SEQ ID NO: 197) in 0.2 ml of water were administered transdermally to the backs of rats (n=10) twice per day for 30 days respectively.
In a second experiment, 40 young female Sprague Dawley (SD) rats (180-230 g) were divided into 4 groups. In group A, 0.2 ml of water was administered to the back of rat (n=10) twice per day for 30 days. In Groups B, C, and D, 10 mg/kg, 1 mg/kg, or 0.3 mg/kg of H-Val-Pro-Gly-Pro-Arg(diAc)-OCH2CH2CH2CH3.HCl(SEQ ID NO: 198) in 0.2 ml of water were administered transdermally to the backs of rats (n=10) twice per day for 30 days.
In a second experiment, 40 young female Sprague Dawley (SD) rats (182-223 g) were divided into 4 groups. In group A, 0.2 ml of water was administered to the back of rat (n=10) twice per day for 30 days. In Groups B, C, and D, 10 mg/kg, 1 mg/kg, or 0.3 mg/kg of H-Ala-Pro-Gly-Pro-Arg(NO2)—OCH2CH2CH2CH3.HCl(SEQ ID NO: 199) in 0.2 ml of water was administered transdermally to the backs of rats (n=10) twice per day for 30 days respectively.
In a second experiment, 40 young female Sprague Dawley (SD) rats (185-220 g) were divided into 4 groups. In group A, 0.2 ml of water was administered to the back of rat (n=10) twice per day for 30 days. In Groups B, C, and D, 10 mg/kg, 1 mg/kg, or 0.3 mg/kg of H-Val-Pro-Asp(OEt)-Pro-Arg(NO2)-OCH2CH2CH2CH3.HCl(SEQ ID NO: 200) in 0.2 ml of water were administered transdermally to the backs of rats (n=10) twice per day for 30 days.

obese mice (SLAC/DB/DB) = assay: Anti-obese activity, transdermal, obese female DB/DB mice (third experiment); type: in vivo, mouse; conditions: for Weight (g) (Day 1) / Blood Glucose Levels (day 1) (mg/dL, no fasting): baseline
Protocol: In a third experiment, 40 obese female DB/DB mice (SLAC/DB/DB mice, 16 weeks old, 55-60 g) were divided into 4 groups. In group A, 0.1 ml of water was administered to the back of mouse (n=10) twice per day for 30 days. In Groups B, C, and D, 15 mg/kg, 1.5 mg/kg, and 0.5 mg/kg of H-Val-Pro-Gly-Pro-Arg(NO2)-OCH(CH3)2.HCl(SEQ ID NO: 197) in 0.1 ml of water was administered transdermally to the back of mouse (n=10) twice per day for 30 days respectively.
In a third experiment, 40 obese female DB/DB mice (SLAC/DB/DB) mice (16 weeks old, 55-60 g) were divided into 4 groups. In group A, 0.1 ml of water was administered to the back of mouse (n=10) twice per day for 30 days. In Groups B, C, and D, 15 mg/kg, 1.5 mg/kg, and 0.5 mg/kg of H-Val-Pro-Gly-Pro-Arg(diAc)-OCH2CH2CH2CH3.HCl(SEQ ID NO: 198) in 0.1 ml of water was administered transdermally to the back of mouse (n=10) twice per day for 30 days respectively.
In a third experiment, 40 obese female DB/DB mice (SLAC/DB/DB) mice (16 weeks old, 53-61 g) were divided into 4 groups. In group A, 0.1 ml of water was administered to the back of mouse (n=10) twice per day for 30 days. In Groups B, C, and D, 15 mg/kg, 1.5 mg/kg, and 0.5 mg/kg of H-Ala-Pro-Gly-Pro-Arg(NO2)—OCH2CH2CH2CH3.HCl(SEQ ID NO: 199) in 0.1 ml of water was administered transdermally to the back of mouse (n=10) twice per day for 30 days respectively.
In a third experiment, 40 obese female DB/DB mice (SLAC/DB/DB) mice (16 weeks old, 53-61 g) were divided into 4 groups. In group A, 0.1 ml of water was administered to the back of mouse (n=10) twice per day for 30 days. In Groups B, C, and D, 15 mg/kg, 1.5 mg/kg, and 0.5 mg/kg of H-Val-Pro-Asp(OEt)-Pro-Arg(NO2)-OCH2CH2CH2CH3.HCl(SEQ ID NO: 200) in 0.1 ml of water was administered transdermally to the back of mouse (n=10) twice per day for 30 days respectively.

[2] = 0.3 mg/kg transdermal twice per day for 30 days
[3] = 1 mg/kg transdermal twice per day for 30 days
[4] = 10 mg/kg transdermal twice per day for 30 days
[5] = 0.5 mg/kg transdermal twice per day for 30 days
[6] = 0.5 mg/kg transdermal twice per day
[7] = 1.5 mg/kg transdermal twice per day for 30 days
[8] = 1.5 mg/kg transdermal twice per day
[9] = 15 mg/kg transdermal twice per day for 30 days
[10] = 15 mg/kg transdermal twice per day

**Q.** Which results are given for “H-Val-Pro-Gly-Pro-Arg(diAc)-OCH2CH2CH2CH3.HCl”?
**A.** effect on overweight of young rats (in words) ([1]; 10, 1 or 0.3 mg/kg transdermal twice per day for 30 days): controlled overweight of young rats effectively; Food intake (per day & per rat) [1, 2]: 23.7 ± 2.9; Weight (g) (Day 30) [1, 2]: 346.2 ± 4.8 g; Weight (g) (Day 1) ([1]; 0.3 mg/kg transdermal twice per day): 191.1 ± 4.8 g; Food intake (per day & per rat) [1, 3]: 22.1 ± 2.8; Weight (g) (Day 30) [1, 3]: 334.1 ± 4.9 g; Weight (g) (Day 1) ([1]; 1 mg/kg transdermal twice per day): 190.6 ± 5.7 g; Food intake (per day & per rat) [1, 4]: 20.8 ± 2.8; Weight (g) (Day 30) [1, 4]: 317.4 ± 6.4 g; Weight (g) (Day 1) ([1]; 10 mg/kg transdermal twice per day): 191.7 ± 4.6 g; Weight (g) (Day 30) (obese mice (SLAC/DB/DB); [5]): 59.3 ± 3.2 g; Blood Glucose Levels (day 30) (mg/dL, no fasting) (obese mice (SLAC/DB/DB); [5]): 179.4 ± 21.1 mg/dL; Weight (g) (Day 1) (obese mice (SLAC/DB/DB); [6]): 57.9 ± 2.7 g; Blood Glucose Levels (day 1) (mg/dL, no fasting) (obese mice (SLAC/DB/DB); [6]): 196.9 ± 29.8 mg/dL; Weight (g) (Day 30) (obese mice (SLAC/DB/DB); [7]): 58.3 ± 2.9 g; Blood Glucose Levels (day 30) (mg/dL, no fasting) (obese mice (SLAC/DB/DB); [7]): 166.4 ± 20.8 mg/dL; Weight (g) (Day 1) (obese mice (SLAC/DB/DB); [8]): 57.6 ± 3.8 g; Blood Glucose Levels (day 1) (mg/dL, no fasting) (obese mice (SLAC/DB/DB); [8]): 195.4 ± 36.7 mg/dL; Weight (g) (Day 30) (obese mice (SLAC/DB/DB); [9]): 54.7 ± 3.8 g; Blood Glucose Levels (day 30) (mg/dL, no fasting) (obese mice (SLAC/DB/DB); [9]): 152.4 ± 17.9 mg/dL; Weight (g) (Day 1) (obese mice (SLAC/DB/DB); [10]): 56.7 ± 2.7 g; Blood Glucose Levels (day 1) (mg/dL, no fasting) (obese mice (SLAC/DB/DB); [10]): 201.5 ± 24.6 mg/dL; effect on body weights and blood glucose levels of obese mice (in words) (obese mice (SLAC/DB/DB); 15, 1.5 and 0.5 mg/kg transdermal twice per day for 30 days): reduced body weights and blood glucose levels of obese mice effectively
